Test results reported in paper PMC8699473, “An Easily Expandable Multi-Drug LC-MS Assay for the Simultaneous Quantification of 57 Oral Antitumor Drugs in Human Plasma” (Cancers, 2021).

Assay: Short-term stability in spiked pooled human plasma (bench-top, 4 °C, 56 °C)

Row | SMILES | Short-time stability (1h, 56°C) Accuracy [%] (validation standard 2xLLOV) | Short-time stability (24h, 4°C, without daylight) Accuracy [%] (validation standard 2xLLOV) | Short-time stability (24h, RT, with daylight) Accuracy [%] (validation standard 2xLLOV) | Short-time stability (24h, RT, without daylight) Accuracy [%] (validation standard 2xLLOV) | Short-time stability (1h, 56°C) Accuracy [%] (validation standard LLOV) | Short-time stability (24h, 4°C, without daylight) Accuracy [%] (validation standard LLOV) | Short-time stability (24h, RT, with daylight) Accuracy [%] (validation standard LLOV) | Short-time stability (24h, RT, without daylight) Accuracy [%] (validation standard LLOV) | Short-time stability (1h, 56°C) Accuracy [%] (validation standard MOV) | Short-time stability (24h, 4°C, without daylight) Accuracy [%] (validation standard MOV) | Short-time stability (24h, RT, with daylight) Accuracy [%] (validation standard MOV) | Short-time stability (24h, RT, without daylight) Accuracy [%] (validation standard MOV) | Short-time stability (1h, 56°C) Accuracy [%] (validation standard ULOV) | Short-time stability (24h, 4°C, without daylight) Accuracy [%] (validation standard ULOV) | Short-time stability (24h, RT, with daylight) Accuracy [%] (validation standard ULOV) | Short-time stability (24h, RT, without daylight) Accuracy [%] (validation standard ULOV)
1 | NC(=O)c1cccc2cn(-c3ccc([C@@H]4CCCNC4)cc3)nc12 [Niraparib] | 53.4 | 96.9 | 95.2 | 93.8 | 46.8 | 93.8 | 92.3 | 91.9 | 51.1 | 100.2 | 97.6 | 96.5 | 43.8 | 92.7 | 95.8 | 94.0
2 | Cc1ccc(NC(=O)c2ccc(CN3CCN(C)CC3)cc2)cc1Nc1nccc(-c2cccnc2)n1 [Imatinib] |  | 105.2 | 86.0 | 82.7 |  | 81.3 | 83.7 | 83.8 |  | 102.2 | 93.6 | 88.6 |  | 94.2 | 85.6 | 82.9
3 | Cn1cnc2c(F)c(Nc3ccc(Br)cc3F)c(C(=O)NOCCO)cc21 [Binimetinib] | 55.9 | 105.5 | 89.3 | 86.4 | 68.1 | 117.1 | 111.6 | 106.0 | 42.6 | 94.8 | 86.5 | 89.2 | 36.7 | 96.8 | 101.8 | 97.3
4 | COc1cc2nccc(Oc3ccc(NC(=O)C4(C(=O)Nc5ccc(F)cc5)CC4)cc3)c2cc1OC [Cabozantinib] | 49.1 | 101.8 | 103.6 |  | 30.2 | 98.5 | 91.8 |  | 51.8 | 102.2 | 104.9 |  | 44.1 | 96.1 |  | 
5 | Cc1cc(Nc2ncc(Cl)c(Nc3ccccc3S(=O)(=O)C(C)C)n2)c(OC(C)C)cc1C1CCNCC1 [Ceritinib] | 39.7 | 95.5 | 66.9 | 72.2 | 42.5 | 102.1 | 70.9 | 77.7 | 34.6 | 93.9 | 84.1 | 92.2 | 32.0 | 92.7 | 91.8 | 96.2
6 | O=C(c1ccc(F)c(F)c1Nc1ccc(I)cc1F)N1CC(O)([C@@H]2CCCCN2)C1 [Cobimetinib] | 51.4 | 100.9 | 98.3 | 98.8 | 42.7 | 99.9 | 98.6 | 99.8 | 47.6 | 102.5 | 102.4 | 103.8 | 41.3 | 97.5 | 103.8 | 100.3
7 | CNC(=O)c1cc(Oc2ccc(NC(=O)Nc3ccc(Cl)c(C(F)(F)F)c3)c(F)c2)ccn1 [Regorafenib] | 41.3 | 95.0 | 89.4 | 83.8 | 32.3 | 83.3 | 88.6 | 80.3 | 39.7 | 104.6 | 90.2 | 90.8 | 35.4 | 101.4 | 89.0 | 87.8
8 | COc1cc2ncnc(Nc3ccc(F)c(Cl)c3)c2cc1NC(=O)/C=C/CN1CCCCC1 [Dacomitinib] | 30.6 | 94.9 | 86.7 | 88.5 | 10.3 | 90.8 | 74.6 | 72.7 | 37.3 | 97.9 | 89.8 | 91.1 | 33.3 | 92.4 | 85.6 | 89.1
9 | O=C1CN2Cc3c(ccc(Cl)c3Cl)N=C2N1 [Anagrelide] | 66.3 | 104.2 | 84.8 | 84.4 | 55.6 | 90.4 | 78.3 | 67.4 | 52.9 | 96.9 | 96.0 | 88.7 | 46.2 | 93.5 | 98.5 | 94.1
10 | C#Cc1cccc(Nc2ncnc3cc(OCCOC)c(OCCOC)cc23)c1 [Erlotinib] | 61.0 | 100.7 |  | 95.3 | 69.2 | 110.4 |  | 107.4 | 52.1 | 98.0 |  | 97.9 | 45.8 | 98.7 |  | 101.0
11 | CCN(CC)CCNC(=O)c1c(C)[nH]c(/C=C2\C(=O)Nc3ccc(F)cc32)c1C [Sunitinib] | 54.5 | 105.9 | 79.8 | 83.9 | 65.8 | 111.2 | 93.0 | 98.2 | 44.2 | 101.2 | 83.0 | 86.7 | 40.6 | 106.4 | 93.1 | 93.8
12 | COc1cc(N2CCC(N3CCN(C)CC3)CC2)ccc1Nc1ncc(Cl)c(Nc2ccccc2P(C)(C)=O)n1 [Brigatinib] | 18.2 | 102.8 | 76.4 | 74.1 | 7.8 | 95.0 | 55.6 | 55.1 | 38.5 | 104.2 | 85.3 | 93.4 | 35.7 | 93.7 | 91.3 | 90.3
13 | Cc1ccc(Nc2nccc(N(C)c3ccc4c(C)n(C)nc4c3)n2)cc1S(N)(=O)=O [Pazopanib] |  | 101.2 | 103.3 | 104.3 |  | 104.1 | 100.2 | 105.8 |  | 97.8 | 99.1 | 101.2 |  | 97.1 | 102.6 | 99.1
14 | CC(=O)Nc1cccc(-n2c(=O)n(C3CC3)c(=O)c3c(Nc4ccc(I)cc4F)n(C)c(=O)c(C)c32)c1 [Trametinib] | 40.7 | 101.9 | 88.2 | 94.3 | 0.4 | 90.4 | 78.3 | 53.1 | 52.0 | 115.0 | 101.6 | 99.7 | 47.5 | 108.2 | 96.8 | 92.2
